Measured values taken from article PMC7613998, “Development of selective inhibitors of phosphatidylinositol 3-kinase C2α” (Nature Chemical Biology, 2022).
Blank lines part the entries; values can stand above or below the molecule they belong to.

Experiments:
Assay in all cases: biochemical
Parameters in all cases: SelectScreen Z'-LYTE purified kinase panel, per cent inhibition, mean of two points
[1] = target: MAPK14 (p38 alpha) (Homo sapiens, UniProt Q16539); conditions: (μM)=100
[2] = target: PIM2 (Homo sapiens, UniProt Q9P1W9); conditions: (μM)=Km app
[3] = target: T1, IRAK4 (Homo sapiens, UniProt Q9NWZ3); conditions: (μM)=Km app
T1 sequence (Q9NWZ3 1-460): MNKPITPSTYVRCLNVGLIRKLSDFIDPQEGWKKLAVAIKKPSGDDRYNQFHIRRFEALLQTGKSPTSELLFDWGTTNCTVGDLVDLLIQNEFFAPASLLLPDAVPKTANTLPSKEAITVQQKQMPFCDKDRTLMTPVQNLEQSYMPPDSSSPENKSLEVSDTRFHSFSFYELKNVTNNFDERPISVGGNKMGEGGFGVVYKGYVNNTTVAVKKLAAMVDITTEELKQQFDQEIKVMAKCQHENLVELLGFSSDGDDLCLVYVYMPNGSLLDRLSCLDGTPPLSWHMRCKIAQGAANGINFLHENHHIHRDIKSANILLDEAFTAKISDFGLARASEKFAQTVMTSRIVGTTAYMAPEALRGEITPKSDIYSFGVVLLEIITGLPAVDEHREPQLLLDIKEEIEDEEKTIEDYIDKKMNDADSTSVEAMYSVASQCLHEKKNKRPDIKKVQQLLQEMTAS

[4] = target: EGFR (ErbB1) (Homo sapiens, UniProt P00533); conditions: (μM)=Km app
[5] = target: SYK (Homo sapiens, UniProt P43405); conditions: (μM)=Km app
[6] = target: IGF1R (Homo sapiens, UniProt P08069); conditions: (μM)=Km app
[7] = target: PLK1 (Homo sapiens, UniProt P53350); conditions: (μM)=Km app
[8] = target: MAP3K8 (COT) (Homo sapiens, UniProt P41279); conditions: (μM)=100
[9] = target: T2, DNA-PK (Homo sapiens, UniProt P78527); conditions: (μM)=Km app
T2 construct: gene PRKDC

[10] = target: PAK2 (PAK65) (Homo sapiens, UniProt Q13177); conditions: (μM)=Km app
[11] = target: ABL1 T315I (Homo sapiens, UniProt P00519, T315I); conditions: (μM)=Km app
[12] = target: PAK1 (Homo sapiens, UniProt Q13153); conditions: (μM)=Km app
[13] = target: PDGFRB (PDGFR beta) (Homo sapiens, UniProt P09619); conditions: (μM)=Km app
[14] = target: PRKACA (PKA) (Homo sapiens, UniProt P17612); conditions: (μM)=Km app

PDGFRB (PDGFR beta), sequence (P09619 whole entry): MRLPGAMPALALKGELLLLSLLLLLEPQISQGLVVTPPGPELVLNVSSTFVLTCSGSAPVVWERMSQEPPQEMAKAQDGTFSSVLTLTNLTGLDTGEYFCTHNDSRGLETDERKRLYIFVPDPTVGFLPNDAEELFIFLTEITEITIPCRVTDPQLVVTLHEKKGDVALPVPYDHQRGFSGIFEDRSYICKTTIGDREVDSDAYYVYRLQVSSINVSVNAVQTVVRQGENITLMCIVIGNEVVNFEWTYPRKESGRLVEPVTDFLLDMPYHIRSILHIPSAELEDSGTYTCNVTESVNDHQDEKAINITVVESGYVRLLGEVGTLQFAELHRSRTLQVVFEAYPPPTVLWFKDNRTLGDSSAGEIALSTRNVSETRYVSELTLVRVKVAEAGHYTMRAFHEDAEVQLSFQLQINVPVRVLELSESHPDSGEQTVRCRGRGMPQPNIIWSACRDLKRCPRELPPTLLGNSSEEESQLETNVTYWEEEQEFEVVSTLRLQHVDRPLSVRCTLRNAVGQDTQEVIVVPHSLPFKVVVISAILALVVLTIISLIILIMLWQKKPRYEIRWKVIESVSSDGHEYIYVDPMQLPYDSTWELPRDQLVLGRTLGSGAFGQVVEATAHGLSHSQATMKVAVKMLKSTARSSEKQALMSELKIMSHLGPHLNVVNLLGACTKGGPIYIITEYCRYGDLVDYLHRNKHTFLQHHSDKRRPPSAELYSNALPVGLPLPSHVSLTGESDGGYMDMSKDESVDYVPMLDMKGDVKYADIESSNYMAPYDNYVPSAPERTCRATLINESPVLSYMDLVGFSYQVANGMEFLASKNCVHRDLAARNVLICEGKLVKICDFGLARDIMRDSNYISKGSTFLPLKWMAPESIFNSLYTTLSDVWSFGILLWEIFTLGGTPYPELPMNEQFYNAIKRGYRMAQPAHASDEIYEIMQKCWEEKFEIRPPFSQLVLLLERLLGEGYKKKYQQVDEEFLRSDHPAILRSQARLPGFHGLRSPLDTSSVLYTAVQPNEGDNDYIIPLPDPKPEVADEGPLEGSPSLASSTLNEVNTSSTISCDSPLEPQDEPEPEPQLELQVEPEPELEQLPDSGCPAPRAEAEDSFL
MAPK14 (p38 alpha), sequence (Q16539 whole entry): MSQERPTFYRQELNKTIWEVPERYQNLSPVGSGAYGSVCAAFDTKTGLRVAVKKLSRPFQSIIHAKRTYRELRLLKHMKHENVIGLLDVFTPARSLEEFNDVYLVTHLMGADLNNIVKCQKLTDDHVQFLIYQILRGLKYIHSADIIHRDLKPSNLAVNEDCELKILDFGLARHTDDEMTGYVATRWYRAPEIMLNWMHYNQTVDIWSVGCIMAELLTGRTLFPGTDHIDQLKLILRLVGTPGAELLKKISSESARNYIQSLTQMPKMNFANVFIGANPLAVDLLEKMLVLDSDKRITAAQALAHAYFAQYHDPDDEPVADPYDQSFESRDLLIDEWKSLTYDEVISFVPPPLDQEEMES
MAP3K8 (COT), sequence (P41279 whole entry): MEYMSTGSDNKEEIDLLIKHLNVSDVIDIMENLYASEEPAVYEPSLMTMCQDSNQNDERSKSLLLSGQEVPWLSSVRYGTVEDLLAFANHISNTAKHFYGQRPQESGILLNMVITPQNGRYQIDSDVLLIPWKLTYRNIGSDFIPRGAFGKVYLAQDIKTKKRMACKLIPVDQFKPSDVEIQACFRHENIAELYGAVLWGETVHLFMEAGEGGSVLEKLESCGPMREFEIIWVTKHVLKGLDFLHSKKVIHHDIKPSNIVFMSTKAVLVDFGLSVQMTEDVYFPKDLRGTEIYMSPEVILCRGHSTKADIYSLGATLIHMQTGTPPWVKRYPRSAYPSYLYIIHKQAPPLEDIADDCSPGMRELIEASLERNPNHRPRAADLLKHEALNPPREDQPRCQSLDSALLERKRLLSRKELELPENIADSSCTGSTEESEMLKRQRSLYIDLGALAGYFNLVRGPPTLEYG
EGFR (ErbB1), sequence (P00533 whole entry): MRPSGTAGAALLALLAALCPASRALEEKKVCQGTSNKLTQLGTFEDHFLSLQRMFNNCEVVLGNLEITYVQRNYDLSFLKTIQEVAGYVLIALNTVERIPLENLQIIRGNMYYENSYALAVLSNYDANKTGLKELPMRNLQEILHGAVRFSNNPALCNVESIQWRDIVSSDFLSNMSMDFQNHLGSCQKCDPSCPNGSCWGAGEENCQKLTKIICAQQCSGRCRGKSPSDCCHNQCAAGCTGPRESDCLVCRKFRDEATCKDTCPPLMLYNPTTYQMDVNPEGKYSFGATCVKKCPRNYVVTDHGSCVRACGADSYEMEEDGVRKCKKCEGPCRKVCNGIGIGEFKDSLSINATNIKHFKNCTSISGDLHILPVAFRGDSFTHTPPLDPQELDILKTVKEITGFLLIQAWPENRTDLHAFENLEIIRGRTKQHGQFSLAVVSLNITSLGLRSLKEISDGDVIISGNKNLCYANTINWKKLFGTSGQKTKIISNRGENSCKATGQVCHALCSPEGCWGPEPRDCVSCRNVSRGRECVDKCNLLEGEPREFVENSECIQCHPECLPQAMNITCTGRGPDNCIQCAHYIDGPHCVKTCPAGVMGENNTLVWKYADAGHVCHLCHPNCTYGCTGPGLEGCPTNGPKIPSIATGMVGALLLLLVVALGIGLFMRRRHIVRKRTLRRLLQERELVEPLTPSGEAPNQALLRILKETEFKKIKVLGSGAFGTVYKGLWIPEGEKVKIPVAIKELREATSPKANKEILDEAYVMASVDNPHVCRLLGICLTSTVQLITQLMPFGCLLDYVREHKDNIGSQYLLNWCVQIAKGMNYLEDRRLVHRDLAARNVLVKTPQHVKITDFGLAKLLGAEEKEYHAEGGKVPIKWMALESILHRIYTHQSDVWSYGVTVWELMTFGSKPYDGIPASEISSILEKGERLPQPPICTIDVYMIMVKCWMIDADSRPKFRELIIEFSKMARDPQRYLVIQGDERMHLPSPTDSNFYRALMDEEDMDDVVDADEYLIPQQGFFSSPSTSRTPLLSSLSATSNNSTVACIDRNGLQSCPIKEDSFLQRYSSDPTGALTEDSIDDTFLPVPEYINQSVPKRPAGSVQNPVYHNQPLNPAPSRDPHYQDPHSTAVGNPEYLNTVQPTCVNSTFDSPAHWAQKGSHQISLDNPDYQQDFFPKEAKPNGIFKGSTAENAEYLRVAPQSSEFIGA
IGF1R, sequence (P08069 whole entry): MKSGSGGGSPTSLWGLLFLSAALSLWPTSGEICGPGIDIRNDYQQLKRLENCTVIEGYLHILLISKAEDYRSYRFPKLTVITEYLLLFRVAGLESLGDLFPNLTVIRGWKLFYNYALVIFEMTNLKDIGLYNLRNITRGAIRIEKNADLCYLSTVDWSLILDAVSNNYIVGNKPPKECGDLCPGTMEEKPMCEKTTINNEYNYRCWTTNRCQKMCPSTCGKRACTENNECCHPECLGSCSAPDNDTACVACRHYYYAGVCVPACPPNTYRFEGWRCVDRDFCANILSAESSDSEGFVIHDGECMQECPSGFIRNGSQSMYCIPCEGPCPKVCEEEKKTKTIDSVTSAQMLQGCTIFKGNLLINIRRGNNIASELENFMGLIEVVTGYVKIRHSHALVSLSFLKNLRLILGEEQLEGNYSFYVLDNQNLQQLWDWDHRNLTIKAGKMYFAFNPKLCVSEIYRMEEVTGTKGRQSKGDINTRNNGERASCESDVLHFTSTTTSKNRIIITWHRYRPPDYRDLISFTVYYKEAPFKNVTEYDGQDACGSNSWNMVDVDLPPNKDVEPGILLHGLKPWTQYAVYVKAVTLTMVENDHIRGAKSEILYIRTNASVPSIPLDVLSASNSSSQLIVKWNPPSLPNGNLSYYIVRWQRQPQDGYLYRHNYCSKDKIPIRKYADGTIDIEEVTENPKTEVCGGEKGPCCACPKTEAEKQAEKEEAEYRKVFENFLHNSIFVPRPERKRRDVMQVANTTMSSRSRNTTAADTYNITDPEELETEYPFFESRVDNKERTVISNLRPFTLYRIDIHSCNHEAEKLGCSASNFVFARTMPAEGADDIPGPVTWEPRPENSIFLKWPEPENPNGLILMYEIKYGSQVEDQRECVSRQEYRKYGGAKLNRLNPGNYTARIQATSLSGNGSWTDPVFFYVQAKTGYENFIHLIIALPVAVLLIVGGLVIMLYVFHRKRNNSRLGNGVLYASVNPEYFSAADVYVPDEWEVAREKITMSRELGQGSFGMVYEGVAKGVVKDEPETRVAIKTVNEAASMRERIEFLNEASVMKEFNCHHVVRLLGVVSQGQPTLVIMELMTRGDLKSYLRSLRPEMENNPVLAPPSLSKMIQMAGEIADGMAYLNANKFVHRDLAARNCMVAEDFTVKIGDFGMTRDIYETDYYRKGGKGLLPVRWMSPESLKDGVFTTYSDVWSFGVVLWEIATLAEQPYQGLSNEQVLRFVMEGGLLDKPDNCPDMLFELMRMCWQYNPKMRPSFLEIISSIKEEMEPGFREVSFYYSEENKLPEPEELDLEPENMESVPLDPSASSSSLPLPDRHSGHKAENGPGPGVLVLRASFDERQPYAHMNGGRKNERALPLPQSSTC
PAK1, sequence (Q13153 whole entry): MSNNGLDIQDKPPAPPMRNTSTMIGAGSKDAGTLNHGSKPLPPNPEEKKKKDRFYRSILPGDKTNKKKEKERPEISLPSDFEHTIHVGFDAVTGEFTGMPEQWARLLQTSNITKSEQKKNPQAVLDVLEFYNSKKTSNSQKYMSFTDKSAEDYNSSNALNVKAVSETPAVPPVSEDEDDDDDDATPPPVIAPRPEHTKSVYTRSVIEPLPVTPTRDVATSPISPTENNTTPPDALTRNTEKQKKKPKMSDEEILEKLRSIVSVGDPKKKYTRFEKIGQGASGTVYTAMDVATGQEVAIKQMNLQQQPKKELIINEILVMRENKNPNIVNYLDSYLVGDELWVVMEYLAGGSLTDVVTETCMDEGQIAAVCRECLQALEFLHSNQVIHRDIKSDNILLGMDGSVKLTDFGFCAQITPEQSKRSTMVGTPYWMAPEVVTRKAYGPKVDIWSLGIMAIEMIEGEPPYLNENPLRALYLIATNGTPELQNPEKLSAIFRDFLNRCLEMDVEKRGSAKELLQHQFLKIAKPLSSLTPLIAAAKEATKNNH

inhibition at 1 µM [1]: -3.25%
inhibition at 3 µM [1]: -1.99%
inhibition at 10 µM [1]: -0.632%
inhibition at 1 µM [2]: -5.29%
inhibition at 3 µM [2]: -3.77%
inhibition at 10 µM [2]: -7.86%
inhibition at 1 µM [3]: 10.7%
inhibition at 3 µM [3]: 2.87%
inhibition at 10 µM [3]: 6.89%
inhibition at 1 µM [4]: 2.09%
inhibition at 3 µM [4]: 1.39%
inhibition at 10 µM [4]: -0.671%
inhibition at 1 µM [5]: 2.84%
inhibition at 3 µM [5]: 2.83%
inhibition at 10 µM [5]: -0.59%
inhibition at 1 µM [6]: 7.35%
inhibition at 3 µM [6]: 2.59%
inhibition at 10 µM [6]: 5.33%
inhibition at 1 µM [7]: 8.77%
inhibition at 3 µM [7]: 11%
inhibition at 10 µM [7]: 10.9%
inhibition at 1 µM [8]: 1.68%
inhibition at 3 µM [8]: -2.27%
inhibition at 10 µM [8]: 4.32%
inhibition at 1 µM [9]: 13.4%
inhibition at 3 µM [9]: 14.1%
inhibition at 10 µM [9]: 12.5%
inhibition at 1 µM [10]: 2.87%
inhibition at 3 µM [10]: -3.37%
inhibition at 10 µM [10]: 3.3%
inhibition at 1 µM [11]: -2.1%
inhibition at 3 µM [11]: -3.21%
inhibition at 10 µM [11]: -2.35%
inhibition at 1 µM [12]: -5.17%
inhibition at 3 µM [12]: -2.58%
inhibition at 10 µM [12]: -1.88%
inhibition at 1 µM [13]: -2.01%
inhibition at 3 µM [13]: -3.23%
inhibition at 10 µM [13]: 6.51%
inhibition at 1 µM [14]: 9.73%
inhibition at 3 µM [14]: 5.23%
inhibition at 10 µM [14]: 4.58%
SMILES: O=C(CSc1nc2nccnc2c(=O)n1CCc1ccccc1)Nc1nccs1 [compound 1, PITCOIN1]

inhibition at 1 µM [1]: 1.55%
inhibition at 3 µM [1]: 6.76%
inhibition at 10 µM [1]: 2.67%
inhibition at 1 µM [2]: -0.888%
inhibition at 3 µM [2]: -5.98%
inhibition at 10 µM [2]: -4.75%
inhibition at 1 µM [3]: 15.2%
inhibition at 3 µM [3]: 4.2%
inhibition at 10 µM [3]: 9.92%
inhibition at 1 µM [4]: -2.95%
inhibition at 3 µM [4]: 6.63%
inhibition at 10 µM [4]: 0.555%
inhibition at 1 µM [5]: 0.0373%
inhibition at 3 µM [5]: 3.51%
inhibition at 10 µM [5]: 6.6%
inhibition at 1 µM [6]: 5.31%
inhibition at 3 µM [6]: 9.19%
inhibition at 10 µM [6]: 11.7%
inhibition at 1 µM [7]: 9.36%
inhibition at 3 µM [7]: 10%
inhibition at 10 µM [7]: 7.66%
inhibition at 1 µM [8]: 2.37%
inhibition at 3 µM [8]: 11.4%
inhibition at 10 µM [8]: 4.89%
inhibition at 1 µM [9]: 11%
inhibition at 3 µM [9]: 23.7%
inhibition at 10 µM [9]: 23.3%
inhibition at 1 µM [10]: 4.79%
inhibition at 3 µM [10]: 5.93%
inhibition at 10 µM [10]: 0.538%
inhibition at 1 µM [11]: 1.95%
inhibition at 3 µM [11]: 3.78%
inhibition at 10 µM [11]: 2.19%
inhibition at 1 µM [12]: 21.4%
inhibition at 3 µM [12]: -0.318%
inhibition at 10 µM [12]: 19.2%
inhibition at 1 µM [13]: 4.69%
inhibition at 3 µM [13]: -3.18%
inhibition at 10 µM [13]: 1.91%
inhibition at 1 µM [14]: 9.77%
inhibition at 3 µM [14]: 8.29%
inhibition at 10 µM [14]: 5.74%
SMILES: CS(=O)(=O)Nc1cccc(-c2csc(NC(=O)CSc3nc4nccnc4c(=O)n3CCc3ccccc3)n2)c1 [compound 3, PITCOIN3]
